Laboratory results from US4102917A, “Substituted phenyl naphthalenesulfonic acids” (American Cyanamid Company, priority 1977, dated 1978).
Structures can show the parent of a compound that is named as a salt.

What was measured:
[1] = system: human C1; assay: Test, Code 026 (C1 inhibitor); assay type: biochemical; conditions: activity in wells, two-fold serial dilution assay; higher well number indicates higher activity
From the text: (§1) An active inhibitor protects C2 from C1 and C4; (ii) Test, Code 035 (C3-C9 inhibitor) -- This test determines the ability of the late components of human complement (C3-C9) to lyse EAC 142 in the presence of appropriate dilutions of the test compound. An active inhibitor protects EAC 142 from lysis by human C3-C9; (iii) Test, Code 036 (C-Shunt inhibitor) -- In this test human erythrocytes rendered fragile are lysed in autologous serum via the shunt pathway activated by cobra venom factor in the presence of appropriate dilutions of the test compound. Inhibition of the shunt pathway results in failure of lysis; (iv) Forssman Vasculitis Test -- Here, the well known complement dependent lesion, Forssman vasculitis, is produced in guinea pigs by intradermal injection of rabbit anti-Forssman antiserum. […]

[2] = system: late components of human complement (C3-C9); assay: Test, Code 035 (C3-C9 inhibitor), lysis of EAC 142; assay type: cell-based; conditions: activity in wells, two-fold serial dilution assay; higher well number indicates higher activity; N=Negative
From the text: as §1

[3] = system: shunt pathway; assay: Test, Code 036 (C-Shunt inhibitor), lysis of human erythrocytes via shunt pathway activated by cobra venom factor; assay type: cell-based; conditions: activity in wells, two-fold serial dilution assay; higher well number indicates higher activity
From the text: as §1

[4] = system: whole complement; assay: Complement Level Reduction Test (in vivo activity, guinea pig); conditions: 200 mg/kg
From the text: An active inhibitor protects C2 from C1 and C4; (ii) Test, Code 035 (C3-C9 inhibitor) -- This test determines the ability of the late components of human complement (C3-C9) to lyse EAC 142 in the presence of appropriate dilutions of the test compound. An active inhibitor protects EAC 142 from lysis by human C3-C9; (iii) Test, Code 036 (C-Shunt inhibitor) -- In this test human erythrocytes rendered fragile are lysed in autologous serum via the shunt pathway activated by cobra venom factor in the presence of appropriate dilutions of the test compound. Inhibition of the shunt pathway results in failure of lysis; (iv) Forssman Vasculitis Test -- Here, the well known complement dependent lesion, Forssman vasculitis, is produced in guinea pigs by intradermal injection of rabbit anti-Forssman antiserum. The lesion is measured in terms of diameter, edema and hemorrhage and the extent to which a combined index of these is inhibited by prior intraperitoneal injection of the test compound at 200 mg/kg is then reported, unless otherwise stated; (v) Forssman Shock Test -- Lethal shock is produced in guinea pigs by an i.v. injection of anti-Forssman antiserum and the harmonic mean death time of treated guinea pigs is compared with that of simultaneous controls; (vi) Complement Level Reduction Test -- In this test, the above dosed guinea pigs, or others, are bled for serum and the complement level is determined in undiluted serum by the capillary tube method of U.S. Pat. No. 3,876,376 and compared to undosed control guinea pigs; and (vii) Cap 50 Test -- Here, appropriate amounts of the test compound are added to a pool of guinea pig serum in vitro, after which the undiluted serum capillary tube assay referred to above is run. The concentration of compound inhibiting 50 % is reported.
With reference to Table I, guinea pigs weighing about 300 g were dosed intravenously (i.v.) or intraperitoneally (i.p.) with 200 mg/kg of the test compound dissolved in saline and adjusted to pH 7-8. […] The serum was tested for whole complement using the capillary tube assay. Percent inhibition was calculated by comparison with simultaneous controls. The results appear in Table I together with results of tests, code 026, 035, 036, Cap 50, % inhibition and Forssman shock.

[5] = system: complement system; conditions: literature; cited from earlier work
[6] = system: hereditary angioneurotic edema; conditions: literature; cited from earlier work
[7] = system: human serum; conditions: in vitro and in vivo, literature; cited from earlier work

With O=C(O)c1cc(NC(=O)c2cc(NC(=S)Nc3cc(S(=O)(=O)O)cc4cc(S(=O)(=O)O)cc(S(=O)(=O)O)c34)cc(C(=O)Nc3cc(C(=O)O)cc(C(=O)O)c3)c2)cc(C(=O)O)c1 [5,5'-{{5-[2-Thio-3-(3,6,8-trisulfo-1-naphthyl)ureido]-1,3-phenylene}bis(carbonylimino)}diisophthalic acid heptasodium salt] the “C1 026 Wells” value [1] was “+5 Wells”, the “C-Late 035 Wells” value [2] was “N” and the “Shunt Inhibition 036 Wells” value [3] was “+1 Wells”.
In the case of O=C(Nc1cc(S(=O)(=O)[O-])cc2cc(S(=O)(=O)[O-])cc(S(=O)(=O)[O-])c12)c1cc(NC(=S)Nc2cc(S(=O)(=O)[O-])cc3cc(S(=O)(=O)[O-])cc(S(=O)(=O)[O-])c23)cc(C(=O)Nc2cc(S(=O)(=O)[O-])cc3cc(S(=O)(=O)[O-])cc(S(=O)(=O)[O-])c23)c1.[Na+].[Na+].[Na+].[Na+].[Na+].[Na+].[Na+].[Na+].[Na+] [8-{3-[3,5-Bis(3,6,8-trisulfo-1-naphthylcarbamoyl)phenyl] -2-thioureido}-1,3,6-naphthalenetrisulfonic acid nonasodium salt], the “C-Late 035 Wells” value [2] is reported as “+1 Wells”, the “In Vivo Activity (Guinea Pig) % Inhibition, Intraperitoneal, 30 min” value ([4]; i.p., 30 min) is reported as -50% and the “In Vivo Activity (Guinea Pig) % Inhibition, Intraperitoneal, 60 min” value ([4]; i.p., 60 min) is reported as -57%. For the same molecule, the “In Vivo Activity (Guinea Pig) % Inhibition, Intraperitoneal, 120 min” value ([4]; i.p., 120 min) was -74%, the “In Vivo Activity (Guinea Pig) % Inhibition, Intravenous, 2 min” value ([4]; i.v., 2 min) was -97% and the “In Vivo Activity (Guinea Pig) % Inhibition, Intravenous, 30 min” value ([4]; i.v., 30 min) was -79%. The “In Vivo Activity (Guinea Pig) % Inhibition, Intravenous, 120 min” value ([4]; i.v., 120 min) was -58%.
In the case of Cc1ccc(C(=O)Nc2ccc(S(=O)(=O)O)c3cc(S(=O)(=O)O)cc(S(=O)(=O)O)c23)cc1NC(=O)c1cccc(NC(=O)Nc2cccc(C(=O)Nc3cc(C(=O)Nc4ccc(S(=O)(=O)O)c5cc(S(=O)(=O)O)cc(S(=O)(=O)O)c45)ccc3C)c2)c1 [Suramin], the “anticomplementary effect / complement inhibition” value [5] is listed as “competitive inhibitor of the complement system” and the “use in the treatment of hereditary angioneurotic edema” value (shortened to “use in the treatment”) [6] is listed as “used with success in the treatment of hereditary angioneurotic edema”.
In the case of Nc1ccc2cc(S(=O)(=O)O)cc(O)c2c1N=Nc1ccc(NC(=O)Nc2ccc(N=Nc3c(N)ccc4cc(S(=O)(=O)O)cc(O)c34)c(S(=O)(=O)O)c2)cc1S(=O)(=O)O [chlorazol fast pink, 3,3'-ureylenebis-[6-(2-amino-8-hydroxy-6-sulfo-1-naphthylazo)]benzenesulfonic acid, tetrasodium salt], the “anticomplementary effect / complement inhibition” value [5] is given as “reported to have an anticomplementary effect”.
In the case of NCCCCCC(=O)O [epsilon-aminocaproic acid], the “use in the treatment” value [6] is listed as “used with success in the treatment of hereditary angioneurotic edema”.
For NC[C@H]1CC[C@H](C(=O)O)CC1 [tranexamic acid], the “use in the treatment” value [6] is listed as “used with success in the treatment of hereditary angioneurotic edema”.
For heparin, the “anticomplementary effect / complement inhibition” value [5] is listed as “reported to have an anticomplementary effect”.
For pentosan-poly-sulfoester, the “anticomplementary activity, reduction in the total hemolytic complement activity” value [7] is given as “anticomplementary activity on human serum both in vitro and in vivo”.
